From patent US20240052317A1, “Methods for Differentiating Stromal Cells or Pericytes” (Lung Biotechnology PBC, priority 2022, published 2024)
Where a name gives a salt, the structure may show the parent alone.

Test system: human pulmonary artery endothelial cells (HPAEC)
Assay: Tube formation assay of test differentiated cells co-cultured with HPAEC
Type: cell-based
Conditions: co-culture of HPAEC and test differentiated cells, 1 μM imatinib mesylate, FIG. 2
Protocol: Next, test differentiated cells were further characterized with a tube formation assay using the following protocol. Test differentiated cells were co-cultured with human pulmonary artery endothelial cells (HPAEC) with or without 1 μM imatinib mesylate to inhibit angiogenesis, and tube formation was observed. Specifically, the wells of 96-well plates (Costar, Product No. 387) were coated with 30 μL of Matrigel® GFR. Plates were spun for 1 minute at 1,500 rotations per minute (RPM) and incubated for 30 minutes at 30° C. Cells were then lifted from culture plates, counted and resuspended in DMEM/F12 media such that 30 μL of media was available for each well. Each well received 30,000 HPAEC and 5,000 differentiated cells.
Green labeling of HPAEC was performed using Nuclight Green Lentivirus, Essen/Sartorius #4475. 100 μL of transfection reagent was added to 5 mL of media and mixed. In another 5 mL of media, 10 μL of needed lentivirus was added and mixed. Both 5 mL preparations were then added together, mixed, and added to an approximately 70% confluent plate of HPAEC or pericytes. Plates were allowed grow overnight in incubator.
Media and lentivirus preparation was removed and replaced with fresh media, and plates were incubated overnight. Plates were incubated for one week, using 1 μg of puromycin in the media for daily media changes […]

Structure (SMILES): Cc1ccc(NC(=O)c2ccc(CN3CCN(C)CC3)cc2)cc1Nc1nccc(-c2cccnc2)n1 [imatinib mesylate]
- tube formation and co-localization with HPAEC: did not
